Test results taken from ChEMBL document CHEMBL1201862, “PubChem BioAssay data set” (2004).
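Growth conditions: 96-well plates. Treatment: test compound, 48 hours, 5 concentrations. Analysis: linear interpolation between bracketing concentrations; unreached endpoints set to highest concentration. Abbreviation: GI50, concentration required for 50% inhibition of growth.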 Active and inactive are the calls of the source. Cut-off read from the data, not from the text of the source: active = GI50 up to about 1.1 µM and inactive = higher. Square brackets hold non-standard residues; d marks the D form. Peptide text beside a SMILES is read from it. * marks the point of attachment. Phe(4-NO2) = N[CH](Cc1ccc([N+](=O)[O-])cc1)C(=O)O; Cbz = O=C(OCc1ccccc1)*

What was measured:
Test in all cases: NCI-60 cell line screen, 48 h
SNB-19 = system: SNB-19
SN12C = system: SN12C
IGROV-1 = system: IGROV-1
SK-MEL-28 = system: SK-MEL-28
SK-OV-3 = system: SK-OV-3
K562 = system: K562
SF-295 = system: SF-295
U-251 = system: U-251
RXF 393 = system: RXF 393
A549 = system: A549
CAKI-1 = system: CAKI-1
OVCAR-8 = system: OVCAR-8
NCI-H23 = system: NCI-H23
HCT-116 = system: HCT-116
HL-60 = system: HL-60
TK-10 = system: TK-10
UACC-62 = system: UACC-62
HT-29 = system: HT-29
LOX IMVI = system: LOX IMVI
Malme-3M = system: Malme-3M

| SMILES | GI50 (SNB-19) | GI50 (SN12C) | GI50 (IGROV-1) | GI50 (SK-MEL-28) | GI50 (SK-OV-3) | GI50 (K562) | GI50 (SF-295) | GI50 (U-251) | GI50 (RXF 393) | GI50 (A549) | GI50 (CAKI-1) | GI50 (OVCAR-8) | GI50 (NCI-H23) | GI50 (HCT-116) | GI50 (HL-60) | GI50 (TK-10) | GI50 (UACC-62) | GI50 (HT-29) | GI50 (LOX IMVI) | GI50 (Malme-3M) |
| --- | --- | --- | --- | --- | --- | --- | --- | --- | --- | --- | --- | --- | --- | --- | --- | --- | --- | --- | --- | --- |
| COc1ccc(NC(=O)CC(=O)N2N=C(N3c4ccccc4Sc4ccccc43)CC2c2ccccc2)cc1 (stereo not drawn) | > 100 µM (inactive) | > 100 µM (inactive) | > 100 µM (inactive) | > 100 µM (inactive) | > 100 µM (inactive) | > 100 µM (inactive) | > 100 µM (inactive) | > 100 µM (inactive) | > 100 µM (inactive) | > 100 µM (inactive) | > 100 µM (inactive) | > 100 µM (inactive) | > 100 µM (inactive) | > 100 µM (inactive) | > 100 µM (inactive) | > 100 µM (inactive) | > 100 µM (inactive) | > 100 µM (inactive) | – | – |
| N#CN=C(NCCO)NCCO | > 100 µM (inactive) | > 100 µM (inactive) | > 100 µM (inactive) | > 100 µM (inactive) | > 100 µM (inactive) | – | > 100 µM (inactive) | > 100 µM (inactive) | – | > 100 µM (inactive) | > 100 µM (inactive) | > 100 µM (inactive) | – | > 100 µM (inactive) | > 100 µM (inactive) | – | > 100 µM (inactive) | > 100 µM (inactive) | > 100 µM (inactive) | > 100 µM (inactive) |
| CCOC(=O)CCC(NC(=O)OCc1ccccc1)C(=O)NC(CCC(=O)OCC)C(=O)NC(CCC(=O)OCC)C(=O)NC(CCC(=O)OCC)C(=O)NC(CCC(=O)OCC)C(=O)NC(Cc1ccc([N+](=O)[O-])cc1)C(=O)NC(CCC(=O)OCC)C(=O)NC(CCC(=O)OCC)C(=O)NC(CCC(=O)OCC)C(=O)NC(CCC(=O)OCC)C(=O)NC(CCC(=O)OCC)C(=O)OCC (stereo not drawn) (Cbz-E(OEt)E(OEt)E(OEt)E(OEt)E(OEt)[Phe(4-NO2)]E(OEt)E(OEt)E(OEt)E(OEt)E(OEt)-OEt; configuration not given here) | > 50 µM (inactive) | > 50 µM (inactive) | > 50 µM (inactive) | > 50 µM (inactive) | > 50 µM (inactive) | > 50 µM (inactive) | – | > 50 µM (inactive) | > 50 µM (inactive) | > 50 µM (inactive) | – | – | > 50 µM (inactive) | – | > 50 µM (inactive) | > 50 µM (inactive) | > 50 µM (inactive) | > 50 µM (inactive) | > 50 µM (inactive) | > 50 µM (inactive) |
| COc1ccc2nc(-c3ccc(O)cc3)ccc2c1 | > 100 µM (inactive) | > 100 µM (inactive) | > 100 µM (inactive) | > 100 µM (inactive) | > 100 µM (inactive) | > 100 µM (inactive) | > 100 µM (inactive) | – | > 100 µM (inactive) | > 100 µM (inactive) | – | > 100 µM (inactive) | > 100 µM (inactive) | > 100 µM (inactive) | > 100 µM (inactive) | > 100 µM (inactive) | > 100 µM (inactive) | > 100 µM (inactive) | > 100 µM (inactive) | > 100 µM (inactive) |
| Cc1cccc(NC(=O)/C(=N\N)C(c2cnc3ccc([N+](=O)[O-])cc3n2)[N+](=O)[O-])c1C (stereo not drawn) | > 100 µM (inactive) | > 100 µM (inactive) | > 100 µM (inactive) | > 100 µM (inactive) | > 100 µM (inactive) | – | > 100 µM (inactive) | – | > 100 µM (inactive) | > 100 µM (inactive) | > 100 µM (inactive) | > 100 µM (inactive) | > 100 µM (inactive) | > 100 µM (inactive) | > 100 µM (inactive) | > 100 µM (inactive) | 66.2 µM (inactive) | > 100 µM (inactive) | 74.8 µM (inactive) | > 100 µM (inactive) |
| C=C1[C@H](OC(C)=O)[C@H]2[C@@H](OC(C)=O)[C@@H](C)C[C@]2(C)C(=O)[C@H](C)/C=C/C(C)(C)C(=O)[C@H](OCC(C)C)[C@H]1OC(C)=O | > 25 µM (inactive) | > 25 µM (inactive) | > 25 µM (inactive) | – | > 25 µM (inactive) | – | 22.9 µM (inactive) | > 25 µM (inactive) | > 25 µM (inactive) | – | 24.7 µM (inactive) | > 25 µM (inactive) | > 25 µM (inactive) | > 25 µM (inactive) | 7.57 µM (inactive) | > 25 µM (inactive) | > 25 µM (inactive) | – | > 25 µM (inactive) | – |
| O=C(N/N=C/c1cc(Br)cc(Br)c1O)c1ccccc1O | 0.912 µM (active) | – | 0.867 µM (active) | 0.708 µM (active) | 1.06 µM (active) | – | 0.9 µM (active) | 0.399 µM (active) | 0.929 µM (active) | 1.1 µM (active) | 0.8 µM (active) | 0.463 µM (active) | 0.52 µM (active) | 1.82 µM (inactive) | 0.15 µM (active) | 0.944 µM (active) | 0.368 µM (active) | 3.38 µM (inactive) | 0.399 µM (active) | 1.56 µM (inactive) |
| CC(=O)OC1CCC2(C)C3CCC4(C)C(c5ccc(=O)oc5)CC5OC54C3CCC2(O)C1 (stereo not drawn) | 5.18 µM (inactive) | 0.617 µM (active) | 2.61 µM (inactive) | 4.27 µM (inactive) | 4.49 µM (inactive) | 0.979 µM (active) | 1.15 µM (inactive) | 2.21 µM (inactive) | 0.479 µM (active) | 0.495 µM (active) | 0.738 µM (active) | 1.15 µM (inactive) | 0.649 µM (active) | 0.706 µM (active) | 0.522 µM (active) | – | 2.69 µM (inactive) | 2.19 µM (inactive) | 1.63 µM (inactive) | 0.895 µM (active) |
